Test results as given in PubChem BioAssay AID330 (DTP/NCI, 2004).
“And” between values parts separate entries of the source, which are not always exact repeats. Equal entries are not always repeated. Inconclusive results and toxic doses are left out.

Test system: P388 leukemia ip, CD2F1 mice, survival T/C
Test: NCI In Vivo Anticancer Drug Screen. Data for tumor model P388 Leukemia (intraperitoneal) in CD2F1 (CDF1) mice
Details: endpoint: median survival time, higher = longer survival
Method in brief: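 Mice carrying the transplanted tumor received test compound or vehicle. Survival was recorded in each group, and the value is the treated-group measurement divided by that of the vehicle-treated control group.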

[1] = dose: 50.0 mg/kg/injection, schedule: Q01DX005 (ip), vehicle: saline with Tween-80
[2] = dose: 100.0 mg/kg/injection, schedule: Q01DX005 (ip), vehicle: saline with Tween-80
[3] = dose: 200.0 mg/kg/injection, schedule: Q01DX005 (ip), vehicle: saline with Tween-80
[4] = dose: 100.0 mg/kg/injection, schedule: Q04DX003 (ip), vehicle: Klucel (hydroxypropylcellulose) (HPC)
[5] = dose: 200.0 mg/kg/injection, schedule: Q04DX003 (ip), vehicle: Klucel (hydroxypropylcellulose) (HPC)
[6] = dose: 400.0 mg/kg/injection, schedule: Q04DX003 (ip), vehicle: Klucel (hydroxypropylcellulose) (HPC)
[7] = dose: 100.0 mg/kg/injection, schedule: Q01DX001 (ip), vehicle: Klucel (hydroxypropylcellulose) (HPC)
[8] = dose: 200.0 mg/kg/injection, schedule: Q01DX001 (ip), vehicle: Klucel (hydroxypropylcellulose) (HPC)
[9] = dose: 50.0 mg/kg/injection, schedule: Q01DX009 (ip), vehicle: Klucel (hydroxypropylcellulose) (HPC)
[10] = dose: 100.0 mg/kg/injection, schedule: Q01DX009 (ip), vehicle: Klucel (hydroxypropylcellulose) (HPC)
[11] = dose: 200.0 mg/kg/injection, schedule: Q01DX009 (ip), vehicle: Klucel (hydroxypropylcellulose) (HPC)
[12] = dose: 100.0 mg/kg/injection, schedule: Q01DX005 (ip), vehicle: saline
[13] = dose: 1.56 mg/kg/injection, schedule: Q01DX009 (ip), vehicle: saline
[14] = dose: 50.0 mg/kg/injection, schedule: Q01DX005 (ip), vehicle: Klucel (hydroxypropylcellulose) (HPC)
[15] = dose: 100.0 mg/kg/injection, schedule: Q01DX005 (ip), vehicle: Klucel (hydroxypropylcellulose) (HPC)
[16] = dose: 60.0 mg/kg/injection, schedule: Q01DX005 (ip), vehicle: Klucel (hydroxypropylcellulose) (HPC)
[17] = dose: 120.0 mg/kg/injection, schedule: Q01DX005 (ip), vehicle: Klucel (hydroxypropylcellulose) (HPC)
[18] = dose: 240.0 mg/kg/injection, schedule: Q01DX005 (ip), vehicle: Klucel (hydroxypropylcellulose) (HPC)

Cc1ccc(C)n1-c1ccsc1C(=O)NNC(=O)C(Cl)Cl
T/C (dose: 7.5 mg/kg/injection, schedule: Q01DX005 (ip), vehicle: Klucel (hydroxypropylcellulose) (HPC)): 100 % of control | T/C (dose: 15.0 mg/kg/injection, schedule: Q01DX005 (ip), vehicle: Klucel (hydroxypropylcellulose) (HPC)): 106 % of control | T/C (dose: 30.0 mg/kg/injection, schedule: Q01DX005 (ip), vehicle: Klucel (hydroxypropylcellulose) (HPC)): 99 % of control

OC1C2CCC(C2)C1CN1CCOCC1 (centres undefined)
T/C (dose: 25.0 mg/kg/injection, schedule: Q01DX005 (ip), vehicle: saline with Tween-80): 99 % of control | T/C [1]: 99 % of control | T/C [2]: 99 % of control | T/C [3]: 96 % of control

CC(CCCN)Nc1cc(O)cc2cccnc12 (centres undefined)
T/C (dose: 100.0 mg/kg/injection, schedule: Q01DX001 (ip), vehicle: saline): 92 % of control | T/C (dose: 200.0 mg/kg/injection, schedule: Q01DX001 (ip), vehicle: saline): 92 % of control | T/C (dose: 400.0 mg/kg/injection, schedule: Q01DX001 (ip), vehicle: saline): 89 % of control

Fc1ccc(CN2COc3c(ccc4cccnc34)C2)cc1
T/C [4]: 96 % of control | T/C [5]: 97 % of control | T/C [6]: 94 % of control

O=C(OCCCCCl)c1ccccc1
T/C (dose: 50.0 mg/kg/injection, schedule: Q01DX009 (ip), vehicle: saline + Tween-80 + alcohol): 104 % of control | T/C (dose: 100.0 mg/kg/injection, schedule: Q01DX009 (ip), vehicle: saline + Tween-80 + alcohol): 104 % of control | T/C (dose: 200.0 mg/kg/injection, schedule: Q01DX009 (ip), vehicle: saline + Tween-80 + alcohol): 110 % of control | T/C (dose: 400.0 mg/kg/injection, schedule: Q01DX009 (ip), vehicle: saline + Tween-80 + alcohol): 112 % of control

CCN1C(=O)C2C3C=CC(C2C1=O)C1C2C(=O)N(CC)C(=O)C2C31 (centres undefined)
T/C (dose: 100.0 mg/kg/injection, schedule: Q01DX001 (ip), vehicle: suspension in saline): 99 % of control | T/C (dose: 200.0 mg/kg/injection, schedule: Q01DX001 (ip), vehicle: suspension in saline): 96 % of control | T/C (dose: 400.0 mg/kg/injection, schedule: Q01DX001 (ip), vehicle: suspension in saline): 100 % of control

CCOP(=O)(O)OCC.CCOP(=O)(O)OCC.[O]=[V]
T/C [7]: 100 % of control | T/C [8]: 100 % of control

CC1N(C)c2cc3[nH]c(=O)cc(C(F)(F)F)c3cc2C1(C)C (centres undefined)
T/C [7]: 92 % of control and 96 % of control | T/C [8]: 103 % of control and 94 % of control | T/C (dose: 400.0 mg/kg/injection, schedule: Q01DX001 (ip), vehicle: Klucel (hydroxypropylcellulose) (HPC)): 121 % of control

COc1ccc2c(c1)sc1nc(Oc3ccccc3)nc(=O)n12
T/C [9]: 105 % of control | T/C [10]: 108 % of control | T/C [11]: 100 % of control

N#Cc1c(-c2ccc(Cl)cc2)c(-c2ccc(Cl)cc2)nn(CCOC(=O)CCC(=O)O)c1=O
T/C (dose: 3.13 mg/kg/injection, schedule: Q01DX005 (ip), vehicle: distilled water + Tween-80): 100 % of control | T/C (dose: 6.25 mg/kg/injection, schedule: Q01DX005 (ip), vehicle: distilled water + Tween-80): 100 % of control | T/C (dose: 12.5 mg/kg/injection, schedule: Q01DX005 (ip), vehicle: distilled water + Tween-80): 105 % of control | T/C (dose: 12.5 mg/kg/injection, schedule: Q01DX005 (ip), vehicle: saline): 104 % of control | T/C (dose: 12.5 mg/kg/injection, schedule: Q01DX005 (ip), vehicle: sodium bicarbonate): 103 % of control | T/C (dose: 12.5 mg/kg/injection, schedule: Q04DX002 (ip), vehicle: distilled water + Tween-80): 106 % of control | T/C (dose: 25.0 mg/kg/injection, schedule: Q01DX005 (ip), vehicle: distilled water + Tween-80): 114 % of control and 117 % of control | T/C (dose: 25.0 mg/kg/injection, schedule: Q01DX005 (ip), vehicle: saline): 112 % of control | T/C (dose: 25.0 mg/kg/injection, schedule: Q01DX005 (ip), vehicle: sodium bicarbonate): 112 % of control | T/C (dose: 25.0 mg/kg/injection, schedule: Q04DX002 (ip), vehicle: distilled water + Tween-80): 105 % of control and 113 % of control | T/C (dose: 50.0 mg/kg/injection, schedule: Q01DX005 (ip), vehicle: distilled water + Tween-80): 172 % of control and 184 % of control | T/C [12]: 180 % of control | T/C (dose: 100.0 mg/kg/injection, schedule: Q01DX005 (ip), vehicle: sodium bicarbonate): 202 % of control | T/C (dose: 100.0 mg/kg/injection, schedule: Q04DX002 (ip), vehicle: distilled water + Tween-80): 115 % of control and 92 % of control

C=CC=O
T/C (dose: 0.44 mg/kg/injection, schedule: Q01DX009 (ip), vehicle: saline): 109 % of control | T/C (dose: 0.88 mg/kg/injection, schedule: Q01DX009 (ip), vehicle: saline): 109 % of control | T/C [13]: 109 % of control

CCN(CC)CCCC(C)Nc1nccc2c(Cl)cccc12 (centres undefined)
T/C (dose: 50.0 mg/kg/injection, schedule: Q01DX005 (ip), vehicle: saline): 108 % of control | T/C [12]: 109 % of control

O=C1CSC(c2ccc([N+](=O)[O-])cc2[N+](=O)[O-])N1c1nncs1 (centres undefined)
T/C [1]: 95 % of control | T/C [2]: 95 % of control | T/C [3]: 95 % of control

O=C1c2ccccc2C(=O)N1OCc1csc(-c2ccccc2)n1
T/C [14]: 95 % of control | T/C [15]: 101 % of control

COCCCNC1=C(C#N)C(=O)NC(c2cccs2)S1 (centres undefined)
T/C (dose: 50.0 mg/kg/injection, schedule: Q01DX009 (ip), vehicle: saline with Tween-80): 117 % of control | T/C (dose: 100.0 mg/kg/injection, schedule: Q01DX009 (ip), vehicle: saline with Tween-80): 119 % of control

C=CCSc1nc2ccc(N=Cc3ccccc3O)cc2s1
T/C [4]: 88 % of control | T/C [5]: 91 % of control | T/C [6]: 92 % of control

CC(=O)OC1OC(CS[As](C)CCO)C(OC(C)=O)C(OC(C)=O)C1OC(C)=O (centres undefined)
T/C [9]: 110 % of control | T/C [10]: 112 % of control | T/C [11]: 112 % of control

CCOC(=O)NCCF
T/C (dose: 0.78 mg/kg/injection, schedule: Q01DX009 (ip), vehicle: saline): 96 % of control | T/C [13]: 101 % of control | T/C (dose: 3.12 mg/kg/injection, schedule: Q01DX009 (ip), vehicle: saline): 101 % of control

O=[N+]([O-])c1ccc(SC2=NCCCN2C2CCCCC2)c(Cl)c1
T/C [14]: 97 % of control | T/C [15]: 100 % of control | T/C (dose: 200.0 mg/kg/injection, schedule: Q01DX005 (ip), vehicle: Klucel (hydroxypropylcellulose) (HPC)): 103 % of control

CCCCOB(OCCCC)C(C)C(C#N)C#N (centres undefined)
T/C (dose: 50.0 mg/kg/injection, schedule: Q04DX003 (ip), vehicle: saline): 92 % of control | T/C (dose: 100.0 mg/kg/injection, schedule: Q04DX003 (ip), vehicle: saline): 92 % of control | T/C (dose: 200.0 mg/kg/injection, schedule: Q04DX003 (ip), vehicle: saline): 96 % of control

ClC1=C(Cl)C2(Cl)C3C(c4ccc(I)cc4C4C3C3(Cl)C(Cl)=C(Cl)C4(Cl)C3(Cl)Cl)C1(Cl)C2(Cl)Cl (centres undefined)
T/C (dose: 50.0 mg/kg/injection, schedule: Q01DX009 (ip), vehicle: saline): 105 % of control | T/C (dose: 100.0 mg/kg/injection, schedule: Q01DX009 (ip), vehicle: saline): 108 % of control | T/C (dose: 200.0 mg/kg/injection, schedule: Q01DX009 (ip), vehicle: saline): 105 % of control

Cn1cc(NC(=O)c2cc(NC(=O)c3cc(NC=O)cn3C)cn2C)cc1C(=O)NCCC(=N)N
T/C (dose: 15.0 mg/kg/injection, schedule: Q01DX005 (ip), vehicle: water): 100 % of control | T/C (dose: 30.0 mg/kg/injection, schedule: Q01DX005 (ip), vehicle: water): 101 % of control | T/C (dose: 60.0 mg/kg/injection, schedule: Q01DX005 (ip), vehicle: water): 96 % of control | T/C (dose: 120.0 mg/kg/injection, schedule: Q01DX005 (ip), vehicle: water): 104 % of control

COC1OC2COc3ccccc3OC2C(NC(N)=S)C1OC (centres undefined)
T/C [16]: 105 % of control | T/C [17]: 105 % of control | T/C [18]: 105 % of control

Cc1cc(NC(=O)Nc2cc(Cl)ccc2C)no1
T/C [16]: 87 % of control | T/C [17]: 93 % of control | T/C [18]: 93 % of control

Cc1ccnc(NS(=O)(=O)c2ccc(N=CC3C(=O)N(c4ccccc4)N(c4ccccc4)C3=O)cc2)n1
T/C [9]: 96 % of control | T/C [11]: 101 % of control
